The values below come from the supplement of paper PMC11061612.

The test system of experiment [1] is C32 (Melanoma). The experiment can be described thus: Bliss excess, mean over the matrix (fraction); higher = more synergy. The procedure, abridged:
(§1)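 Cell lines grown in DMEM/F12 or RPMI with 10% FBS were plated in 1536-well plates and held 24 hours at 37°C, 5% CO2 before 72 hours of exposure to two-drug dose matrices, with DMSO typically at 0.2%. CellTiter-Glo 2.0 luminescence gave viability, which was converted to inhibition. Vehicle wells were set to 0 and blank wells to 1. Combination Emax is the second-highest inhibition in the matrix, and Bliss excess is the observed combination effect minus the expected EA + EB − EA·EB, where EA and EB are the single-agent effects.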

The test system of experiment [2] is CAL-85-1 (Breast Carcinoma). Described as above. The method in brief: as §1
Experiment [3] deals with DK-MG (Glioblastoma). The description is as above. The method in brief:
as §1

For experiment [4], the system named is HT-1197 (Bladder Carcinoma). The description is as above. The procedure, abridged:
as §1

In experiment [5] the test system is L-363 (Plasma Cell Myeloma). Described as above. The procedure, abridged: as §1
Experiment [6] has as its system NCI-H1648 (Lung Adenocarcinoma). Described as above. The method in brief:
as §1

In experiment [7] the test system is NCI-H1944 (Lung Adenocarcinoma). Described as above. The procedure, abridged: as §1
The test system of experiment [8] is RPMI-8402 (T-Lymphoblastic Leukemia). The experiment is described as above. The procedure, abridged:
as §1

For experiment [9], the system named is SBC-3 (Small Cell Lung Carcinoma). The description is as above. The procedure, abridged: as §1
The test system of experiment [10] is SBC-5 (Small Cell Lung Carcinoma). Described as above. The method in brief:
as §1

Experiment [11] relates to SCC90 (Head and Neck Carcinoma). The description is as above. The procedure, abridged: as §1
Experiment [12] has as its system SW1463 (Colorectal Carcinoma). Described as above. The method in brief: as §1
In experiment [13] the test system is BC-1 (B-Cell Non-Hodgkin's Lymphoma). The experiment can be described thus: combination Emax (second highest fraction inhibited in the dose matrix, 72 h); higher = more inhibition; extreme values may be limits of the assay. The method in brief: as §1
Experiment [14] concerns BT-474 (Breast Carcinoma). The experiment is described as above. The method in brief:
as §1

Experiment [15] has as its system C32 (Melanoma). The experiment is described as above. The procedure, abridged: as §1
Experiment [16] relates to JURL-MK1 (Chronic Myelogenous Leukemia). Described as above. The method in brief:
as §1

Experiment [17] deals with L-363 (Plasma Cell Myeloma). The experiment is described as above. The procedure, abridged: as §1
Experiment [18] has as its system NCI-H1048 (Small Cell Lung Carcinoma). Described as above. The method in brief: as §1
In experiment [19] the test system is SBC-3 (Small Cell Lung Carcinoma). The description is as above. The method in brief: as §1
For experiment [20], the system named is SNU-1 (Gastric Carcinoma). Described as above. The method in brief:
as §1
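For Bliss excess, mean over the matrix in this document: after 72 h of two-drug dosing.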

`Cc1cc2ncnn2cc1Nc1ncc2c(n1)n(C1CCOCC1)c(=O)n2C` [AZD7648] + CCN(CCO)CCCOc1ccc2c(Nc3cc(CC(=O)Nc4cccc(F)c4)[nH]n3)ncnc2c1 [AZD2811] (first compound max 10 µM, 7x7, partner max 1 µM): the Bliss excess in experiment [1] was 0.0271; in experiment [2], -0.0195; in experiment [3], 0.0189; in experiment [4], -0.0131; in [5], 0.0321; in experiment [6] it was 0.0369. Also, the Bliss excess in experiment [7] is 0.0709; in experiment [8] it was -0.0443; in experiment [9], 0.0455; in experiment [10], 0.057; in [11], 0.0511; in experiment [12], -0.0035. Besides, the “combination Emax” value in experiment [13] came out at 0.871; in experiment [14], 0.237; in [15] it was 0.279; in experiment [16], 0.601; in experiment [17] it was 0.413; in [18], 0.706. The “combination Emax” value in experiment [19] is 0.564; in experiment [20] it was 0.239.
With `C[C@@H](c1ccc2nccn2c1)n1nnc2ncc(-c3cnn(C)c3)nc21` [Savolitinib] + CC1(C)CCC(CN2CCN(c3ccc(C(=O)NS(=O)(=O)c4ccc(NCC5CCOCC5)c([N+](=O)[O-])c4)c(Oc4cnc5[nH]ccc5c4)c3)CC2)=C(c2ccc(Cl)cc2)C1 [Venetoclax] (first compound max 1 µM, 7x7, partner max 1 µM), the Bliss excess in experiment [1] was -0.0338; in [2] it was -0.0468; in [3] it was -0.119; in experiment [4], -0.0534; in experiment [5], -0.0159; in [6], -0.0253. Further, the Bliss excess in experiment [7] was -0.0328; in experiment [8] it was -0.0218; in [9], -0.0435; in [10] it was -0.0451; in [11], -0.0192; in experiment [12], -0.0339. In addition, the “combination Emax” value in experiment [13] came out at 0.209; in [14], 0.0943; in [15], 0.171; in experiment [16] it was 0.127; in [17] it was 0.0979; in experiment [18] it was 0.178. In addition, the “combination Emax” value in experiment [19] came out at 0.118; in experiment [20], 0.188.
As for `C=CCn1c(=O)c2cnc(Nc3ccc(N4CCN(C)CC4)cc3)nc2n1-c1cccc(C(C)(C)O)n1` [AZD1775] + C1CN(CCC1(C(=O)N[C@@H](CCO)C2=CC=C(C=C2)Cl)N)C3=NC=NC4=C3C=CN4 [Capivasertib] (first compound max 3 µM, partner max 3 µM), the Bliss excess in [1] was -0.0772; in [2], -0.0528; in experiment [3], -0.0023; in experiment [4], -0.0488; in experiment [5], -0.0379; in [6], -0.0257. In addition, the Bliss excess in [7] was 0.0207; in experiment [8] it was 0.0084; in experiment [9] it was -0.0786; in experiment [10], 0.0256; in [11], -0.0309; in [12], -0.0888. Further, the “combination Emax” value stood at 0.97 in [13]; 0.47 in [14]; 0.52 in experiment [15]; 0.986 in experiment [16]; 0.939 in experiment [17]; 0.91 in experiment [18]. Further, the “combination Emax” value in experiment [19] was 0.881; in experiment [20], 0.727.
Consider `Cc1cc2ncnn2cc1Nc1ncc2c(n1)n(C1CCOCC1)c(=O)n2C` [AZD7648] + CN(C)CCCOc1ccc(-c2ccc3ncc4c(c3c2)n(C2CCOCC2)c(=O)n4C)cn1 [AZD0156] (first compound max 10 µM, 7x7, partner max 1 µM), for which the Bliss excess in [1] is 0.003; in experiment [2], -0.0542; in experiment [3], 0.0157; in experiment [4], -0.0117; in experiment [5], 0.0303; in [6], 0.0176. In addition, the Bliss excess in [7] was -0.0039; in experiment [8] it was 0.0104; in experiment [9], 0.0332; in experiment [10], 0.0236; in experiment [11], 0.0055; in [12] it was 0.0037. Further, the “combination Emax” value in experiment [13] is 0.634; in [14], 0.234; in experiment [15], 0.195; in experiment [16], 0.406; in [17], 0.393; in experiment [18] it was 0.407. For the same compound, the “combination Emax” value in [19] worked out at 0.482; in [20], 0.193.
